From ChEMBL document CHEMBL1136974, “Selective inhibitors of tumor progression loci-2 (Tpl2) kinase with potent inhibition of TNF-alpha production in human whole blood” (Bioorg Med Chem Lett, 2009)

How the values were obtained:
[1] = Membrane permeability by PAMPA assay; type: ADME; conditions: read-out: permeability
[2] = Selectivity of Tpl2 to Src
[3] = Selectivity of Tpl2 to p38
[4] = AUC in rat at 100 mg/kg, po; type: ADME, organism-based; set-up: dose 100 mg/kg, route oral; conditions: plasma
[5] = Selectivity of Tpl2 to EGFR
[6] = Selectivity of Tpl2 to PKA
[7] = Selectivity of Tpl2 to MK2
[8] = Selectivity of Tpl2 to CAMK2
[9] = Cmax in rat at 100 mg/kg, po; type: ADME, organism-based; set-up: dose 100 mg/kg, route oral; conditions: in vivo
[10] = Selectivity of Tpl2 to PKC
[11] = Clearance in rat; type: ADME, organism-based; conditions: in vivo

Compound | Papp [1] [×10⁻⁶ cm/s] | fold change (FC) [2] | fold change (FC) [3] | AUC [4] [ng·h/mL] | fold change (FC) [5] | fold change (FC) [6] | fold change (FC) [7] | fold change (FC) [8] | Cmax [9] [ng/mL] | fold change (FC) [10] | clearance [11] [mL/min/kg]
CCN1CCC(n2cc(CNc3cc(Cl)c4ncc(C#N)c(Nc5ccc(F)c(Cl)c5)c4c3)nn2)CC1 | 0.36 | 10 | 10 | 4840 | 6880 | 10 | 10 | 10 | 517 | 10 | –
CCCN1CCC(n2cc(CNc3cc(Cl)c4ncc(C#N)c(Nc5ccc(F)c(Cl)c5)c4c3)nn2)CC1 | 0.48 | 10 | 10 | – | – | 10 | 10 | 10 | – | 10 | –
N#Cc1cnc2c(Br)cc(NCc3c[nH]nn3)cc2c1Nc1ccc(F)c(Cl)c1 | – | 10 | 10 | – | – | 10 | 10 | – | – | 10 | –
CC(C)(C)n1cc(CNc2cc(Br)c3ncc(C#N)c(Nc4ccc(F)c(Cl)c4)c3c2)nn1 | – | 10 | 10 | – | – | 10 | 10 | 10 | – | 10 | –
N#Cc1cnc2c(Cl)cc(NCc3cn(Cc4ccccc4)nn3)cc2c1Nc1ccc(F)c(Cl)c1 | – | 10 | 10 | – | – | 10 | 10 | 10 | – | 10 | –
N#Cc1cnc2c(Cl)cc(NCc3cn(Cc4ccccn4)nn3)cc2c1Nc1ccc(F)c(Cl)c1 | – | 10 | 10 | – | – | 10 | 10 | 10 | – | 10 | –
CN1CCCC1CCn1cc(CNc2cc(Cl)c3ncc(C#N)c(Nc4ccc(F)c(Cl)c4)c3c2)nn1 (stereo not given) | – | 10 | 10 | – | – | 10 | 10 | 10 | – | 10 | –
CN(C)CCn1cc(CNc2cc(Cl)c3ncc(C#N)c(Nc4ccc(F)c(Cl)c4)c3c2)nn1 | – | 10 | 10 | – | – | 10 | 10 | 10 | – | 10 | –
N#Cc1cnc2c(Cl)cc(NCc3c[nH]nn3)cc2c1Nc1ccc(F)c(Cl)c1 | – | 10 | 10 | – | 10 | 10 | 10 | 10 | – | 10 | –
N#Cc1cnc2c(Cl)cc(NCc3cn(C4CCN(C5CCC5)CC4)nn3)cc2c1Nc1ccc(F)c(Cl)c1 | 0.43 | 10 | 10 | – | – | 10 | 10 | 10 | – | 10 | –
N#Cc1cnc2c(Cl)cc(NCc3cn(CC(=O)O)nn3)cc2c1Nc1ccc(F)c(Cl)c1 | 0.04 | 10 | 10 | – | – | 10 | 10 | 10 | – | 10 | –
CCN1CCC(CCn2cc(CNc3cc(Cl)c4ncc(C#N)c(Nc5ccc(F)c(Cl)c5)c4c3)nn2)CC1 | – | 10 | 10 | – | – | 10 | 10 | 10 | – | 10 | –
N#Cc1cnc2c(Cl)cc(NCc3cn(-c4ccncc4)nn3)cc2c1Nc1ccc(F)c(Cl)c1 | – | 10 | 10 | – | – | 10 | 10 | 10 | – | 10 | 28
N#Cc1cnc2c(Br)cc(NCc3cn(Cc4cccnc4)nn3)cc2c1Nc1ccc(F)c(Cl)c1 | 0.13 | 10 | 10 | – | – | 10 | 10 | 10 | – | 10 | –
N#Cc1cnc2c(Cl)cc(NCc3cn(-c4cccnc4)nn3)cc2c1Nc1ccc(F)c(Cl)c1 | – | 10 | 10 | – | – | 10 | 10 | 10 | – | 10 | –
N#Cc1cnc2c(Cl)cc(NCc3cn(CCCN)nn3)cc2c1Nc1ccc(F)c(Cl)c1 | – | 10 | 10 | – | – | 10 | 10 | 10 | – | 10 | –
